PubChem BioAssay AID2060605 (Molecular Pharmacology Branch, DTP, NCI, 2025)

System: 947758-054-R-J2-PDC spheroid growth, percent test/control
Assay: Anticancer human tumor 947758-054-R-J2-PDC patient-derived colon adenocarcinoma cell line growth inhibition [CLK]
Details: spheroids with HUVEC and MSC; for IC50: curve of first compound; for viability, T/C: stronger effect = lower value
From the text: A high-throughput screen of multi-cell type tumor spheroids was designed to identify active combinations of […] and targeted small molecules. Complex spheroids include a stromal component modeled by human endothelial cells (HUVEC) and fibroblasts modeled by human mesenchymal stem cells (MSCs). The concentration ranges selected for each drug and investigational agent were based upon clinically achievable concentrations if the clinical Cmax of the agent was known.
Compounds. The drugs and investigational agents: cirtuvivint (SM08502; NSC835563), CC-671 (NSC850746), vemurafenib (NSC761431), tapotoclax (NSC804041), sotorasib (NSC818433), adagrasib (NSC831453), MRTX-1133 (NSC836407), BAY2416964 (NSC825713), copanlisib (NSC816437), inavolisib (NSC800729), abemaciclib (NSC768073), osimertinib (NSC779217), entinostat (NSC756642), eltanexor (KPT-8602, NSC794443), venetoclax (NSC766270), ceralasertib (NSC777638), bortezomib (NSC756655), olaparib (NSC753686), talazoparib (NSC767125), alisertib (NSC759677), peposertib (NSC802822), gemcitabine (NSC613327), 5-fluorouracil (NSC19893), SN-38 (NSC673596), oxaliplatin (NSC266046), paclitaxel (NSC125973), and doxorubicin (NSC123127), were obtained from the National Cancer Institute (NCI) Developmental Therapeutics Program Chemical Repository. The FDA-approved anticancer drug set is available from the Developmental Therapeutics Program at https://dtp.cancer.gov/organization/dscb/obtaining/available plates.htm. […] The stock solutions were prepared in dimethyl sulfoxide (DMSO, Sigma-Aldrich, St. Louis, MO, cat. D2650), except for the platinum complexes which were prepared in saline (Quality Biological, Gaithersburg, MD, cat. 114-055-101), at 800-fold the tested concentration and stored at -70 degrees C prior to their use. All drugs and investigational agents were tested over a range starting from a high concentration at or near the clinical Cmax and decreasing in half-log increments. If the clinical Cmax for an agent had not been determined, the highest concentration tested was 10 microM.
Cell Culture. All cells were maintained in an incubator at 37 degrees C and 5% CO2 with 95% humidity. The PDC lines were cultured according to standard operating procedures established by the NCI PDMR. Briefly, all PDCs were thawed and cultured in Matrigel-coated flasks prepared with a working solution of 1X Ham's F-12 nutrient mix, without supplementation (Invitrogen, Waltham, MA, cat. 11765054), 100 U/mL penicillin-streptomycin (Invitrogen, cat. 15140122), and 2.5% Matrigel (Corning Inc., Corning, NY, cat. 354248) for the first three passages. The 947758-054-R-J2-PDC line was cultured in 6B/Colon 1A media, which includes advanced DMEM/F-12 (Thermo Fisher Scientific, cat. 12634028), 10 mM HEPES (Thermo Fisher Scientific, cat. 15630080), 1X GlutaMAX supplement (Thermo Fisher Scientific, cat. 35050061), 0.1 mg/mL primocin (InvivoGen, cat. ant-pm-2), 10% defined fetal bovine serum, heat inactivated (HyClone Laboratories Inc., cat. SH30070.03HI), 1.25 mM N-Acetyl-L-cysteine (Sigma-Aldrich, cat. A9165), 10 mM nicotinamide (Sigma-Aldrich, cat. N0636), 1X B-27 supplement (Thermo Fisher Scientific, cat. 17504044), 1X N-2 supplement (Thermo Fisher Scientific, cat. 17502048), and 10 microM Y-27632 dihydrochloride (Tocris Bioscience, cat. 1254). The 876862-298-R-J1-PDC was cultured in 6E media, which includes all 6B/Colon 1A media components plus 50% L-WRN conditioned media (ATCC, cat. CRL-3276), 50 ng/mL recombinant human EGF recombinant protein (hEGF; Thermo Fisher Scientific, cat. PHG0311), 10 ng/mL recombinant human fibroblast growth factor 10 (hGFG-10; PeproTech, cat. 100-26), 1 ng/mL recombinant human fibroblast growth factor 2 (hFGF-2; PeproTech, cat. 100-18B), and 1 µM prostaglandin E2 (PGE2; Tocris, cat. 2296). The 227483-062-R1-J1-PDC line was cultured in Panc media, containing all 6E components except hFGF-2, with the addition of 500 nM SB-431542 (Selleckchem, cat. S1067) and 10 nM gastrin (Tocris, cat. 3006). […]

[1] = second compound 0.0316 µM, first compound 0.0316 µM
[2] = second compound 0.0316 µM, first compound 0.1 µM
[3] = second compound 0.0316 µM, first compound 0.316 µM
[4] = second compound 0.0316 µM, first compound 1 µM
[5] = second compound 0.0316 µM, first compound 3.16 µM
[6] = second compound 0.0316 µM, first compound 10 µM
[7] = second compound 0.1 µM, first compound 0.0316 µM
[8] = second compound 0.1 µM, first compound 0.1 µM
[9] = second compound 0.1 µM, first compound 0.316 µM
[10] = second compound 0.1 µM, first compound 1 µM
[11] = second compound 0.1 µM, first compound 3.16 µM
[12] = second compound 0.1 µM, first compound 10 µM
[13] = second compound 0.316 µM, first compound 0.0316 µM
[14] = second compound 0.316 µM, first compound 0.1 µM
[15] = second compound 0.316 µM, first compound 0.316 µM
[16] = second compound 0.316 µM, first compound 1 µM
[17] = second compound 0.316 µM, first compound 3.16 µM
[18] = second compound 0.316 µM, first compound 10 µM
[19] = second compound 1 µM, first compound 0.0316 µM
[20] = second compound 1 µM, first compound 0.1 µM
[21] = second compound 1 µM, first compound 0.316 µM
[22] = second compound 1 µM, first compound 1 µM
[23] = second compound 1 µM, first compound 3.16 µM
[24] = second compound 1 µM, first compound 10 µM
[25] = second compound 3.16 µM, first compound 0.0316 µM
[26] = second compound 3.16 µM, first compound 0.1 µM
[27] = second compound 3.16 µM, first compound 0.316 µM
[28] = second compound 3.16 µM, first compound 1 µM
[29] = second compound 3.16 µM, first compound 3.16 µM
[30] = second compound 3.16 µM, first compound 10 µM
[31] = second compound 10 µM, first compound 0.0316 µM
[32] = second compound 10 µM, first compound 0.1 µM
[33] = second compound 10 µM, first compound 0.316 µM
[34] = second compound 10 µM, first compound 1 µM
[35] = second compound 10 µM, first compound 3.16 µM
[36] = second compound 10 µM, first compound 10 µM
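Further: spheroids exposed to compounds for one week before readout.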
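Wherever viability, T/C is given: 100% = DMSO vehicle control wells.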

In the case of `CCCS(=O)(=O)Nc1ccc(F)c(C(=O)c2c[nH]c3ncc(-c4ccc(Cl)cc4)cc23)c1F` + CN1CCN(c2cc(C(=O)Nc3cc4cc(-c5cnn(C)c5)ccc4cn3)ccn2)CC1, the IC50 (second compound 0.0316 µM) is reported as > 10000 nM, the IC50 (second compound 0.1 µM) is reported as 910 nM and the IC50 (second compound 0.316 µM) is reported as < 31.6 nM. For the same compound, the IC50 (second compound 1 µM) was < 31.6 nM, the IC50 (second compound 3.16 µM) was < 31.6 nM and the IC50 (second compound 10 µM) was < 31.6 nM. It also gave a viability, T/C [1] of 99.5%, a viability, T/C [2] of 99.4% and a viability, T/C [3] of 79.7%. The viability, T/C [4] was 74.3%, the viability, T/C [5] was 79.6% and the viability, T/C [6] was 63.8%. The viability, T/C [7] was 128%, the viability, T/C [8] was 176% and the viability, T/C [9] was 101%. The viability, T/C [10] was 50.9%, the viability, T/C [11] was 50.8% and the viability, T/C [12] was 34.5%. The viability, T/C [13] was 3.8%, the viability, T/C [14] was 4.14% and the viability, T/C [15] was 4.9%. The viability, T/C [16] was 4.06%, the viability, T/C [17] was 4.73% and the viability, T/C [18] was 3.59%. The viability, T/C [19] was 0.85%, the viability, T/C [20] was 1% and the viability, T/C [21] was 0.17%. It also gave a viability, T/C [22] of 0.15%, a viability, T/C [23] of 1.2% and a viability, T/C [24] of 0.11%. The viability, T/C [25] was 0.94%, the viability, T/C [26] was 1.18% and the viability, T/C [27] was 1.32%. The viability, T/C [28] was 0.16%, the viability, T/C [29] was 0.84% and the viability, T/C [30] was 1.58%. The viability, T/C [31] was 1.3%, the viability, T/C [32] was 1.75% and the viability, T/C [33] was 0.41%. The viability, T/C [34] was 0.42%, the viability, T/C [35] was 1.25% and the viability, T/C [36] was 0.41%.

With `COC1C=CCC(C)C(C)S(=O)(=O)NC(=O)c2ccc3c(c2)N(CC2CCC21)CC1(CCCc2cc(Cl)ccc21)CO3` (centres undefined) + CN1CCN(c2cc(C(=O)Nc3cc4cc(-c5cnn(C)c5)ccc4cn3)ccn2)CC1 the IC50 (second compound 0.0316 µM) was 8020 nM, the IC50 (second compound 0.1 µM) was 8680 nM and the IC50 (second compound 0.316 µM) was < 31.6 nM. The IC50 (second compound 1 µM) was < 31.6 nM, the IC50 (second compound 3.16 µM) was < 31.6 nM and the IC50 (second compound 10 µM) was < 31.6 nM. The viability, T/C [1] was 111%, the viability, T/C [2] was 106% and the viability, T/C [3] was 111%. It also gave a viability, T/C [4] of 97%, a viability, T/C [5] of 101% and a viability, T/C [6] of 37.8%. The viability, T/C [7] was 137%, the viability, T/C [8] was 163% and the viability, T/C [9] was 179%. For the same compound, the viability, T/C [10] was 174%, the viability, T/C [11] was 151% and the viability, T/C [12] was 35.2%. The viability, T/C [13] was 4.59%, the viability, T/C [14] was 2.89% and the viability, T/C [15] was 2.74%. It also gave a viability, T/C [16] of 3.21%, a viability, T/C [17] of 3.47% and a viability, T/C [18] of 6.05%. For the same compound, the viability, T/C [19] was 1.87%, the viability, T/C [20] was 4.11% and the viability, T/C [21] was 0.16%. For the same compound, the viability, T/C [22] was 1.58%, the viability, T/C [23] was 1.7% and the viability, T/C [24] was 0.3%. For the same compound, the viability, T/C [25] was 0.35%, the viability, T/C [26] was 0.72% and the viability, T/C [27] was 0.26%. For the same compound, the viability, T/C [28] was 1.14%, the viability, T/C [29] was 0.26% and the viability, T/C [30] was 0.15%. For the same compound, the viability, T/C [31] was 1.19%, the viability, T/C [32] was 3.23% and the viability, T/C [33] was 2.27%. The viability, T/C [34] was 1.77%, the viability, T/C [35] was 0.61% and the viability, T/C [36] was 1.23%.
